Laboratory results published in patent US9326518B2, “Synergistic combination of a chlorotoluron compound and OIT for dry film protection” (Dow Global Technologies LLC, priority 2013, dated 2016).

Experiments:
Chlorella sp. ATCC 7516 = test: Algal efficacy testing of dry paint films (modified ASTM 5589, 6-well plates); type: cell-based; settings: 3 weeks; for % inhibition: at the Total conc, versus blank sample; for Total conc (concentration chosen as minimum inhibitory concentration, pass level ≧75% inhibition): total active ingredient in acrylic/silicone paint, dry film on filter paper
Protocol: (§1) Slurries containing 33% antimicrobial active ingredient (chlorotoluron) were post added to a white, acrylic/silicone based outdoor paint free of biocides to give a total active ingredient concentration of 10000 and 1000 ppm respectively. KATHON™ 893T (100% OIT) was post added to a white, acrylic/silicone based outdoor paint free of biocides to give a total active ingredient concentration of 10000 and 1000 ppm respectively. These paints were then diluted with an antimicrobial free acrylic/silicone based paint and mixed to prepare targeted concentrations of antimicrobial compounds for the testing. The total biocides concentrations tested were 125, 250, 500, 1000, 2000 and 5000 ppm. After biocides addition or dilution, the paints were mixed 90 seconds with the horse power shaker (AXEL 75M3372/Agitateur SO-10MI) until uniformity was achieved. Paints containing different antimicrobial compounds at the same levels were mixed together in order to obtain the desired ratio of antimicrobial compounds. After one day, the paints were applied to Schleicher & Schuell filter paper at 280 μm wet film thickness and dried for 3 days at room temperature avoiding direct exposure to sunlight. Square discs (1.6 cm×1.6 cm) were cut out from each panel and were used as the substrate for algal efficacy tests. This sample size allowed for an agar border when the sample disc was placed into the well of the test plate.
(§2) Algal efficacy was tested according to modified ASTM 5589 which is a standard accelerated test method for determining resistance of various coatings (including paints) to algal defacement. To accommodate for high-throughput screening, this method was scaled down from petri dishes to 6-well plates. Bold Modified Basal Freshwater Nutrient Solution was used as growth medium. A single coated filter paper coupon was placed with a pair of sterile forceps at the center of the agar plug (on top) with the painted surface facing upwards. Algal inoculums were prepared by mixing equal concentrations (1×10^6 cfu/ml) and equal volumes of exponentially growing algae cultures.
(§3) Each well that contains a tested coupon was inoculated with 1750 μl of algal suspensions (1×10^6 cfu/ml) making sure that the whole surface (paint film as well as the agar surrounding it) was evenly covered. The plates were incubated at room temp (21° C.-25° C.) with cyclic exposure to light and dark phases, for a period of three weeks. The total area inhibited was evaluated at the end of each week according to percent area covered in 5% increments
(§4) At the end of the three week incubation period, the samples were scored for percent inhibition regarding color intensity compared to the blank sample.
(§5) The Synergy Index calculation was performed as follows.
(§6) The SI is calculated based on F. C. Kull et.
(§7) SI value of <1 in the formula indicates a synergism of the blended biocides exists.
(§8) The minimal targeted inhibition was set at 75%, meaning a coupon with at least 75% algal growth inhibition was considered as a pass.

[1] = tested on: Stichococcus bacillaris SAG 379-1a / CCAP 379/1a; test: as above; type: cell-based; settings: 3 weeks; for % inhibition: at the Total conc, versus blank sample; for Total conc (concentration chosen as minimum inhibitory concentration, pass level ≧75% inhibition): total active ingredient in acrylic/silicone paint, dry film on filter paper
Protocol: as §1, §2, §3, §4, §5, §6, §7, §8

SMILES	% inhibition (Chlorella sp. ATCC 7516)	Total conc (concentration chosen as minimum inhibitory concentration, pass level ≧75% inhibition) (Chlorella sp. ATCC 7516)	% inhibition [1]	Total conc (concentration chosen as minimum inhibitory concentration, pass level ≧75% inhibition) [1]
Cc1ccc(NC(=O)N(C)C)cc1Cl [Chlorotoluron, N′-(3-chloro-4-methylphenyl)-N,N-dimethylurea]	100%	1000 ppm	90%	500 ppm
CCCCCCCCn1sccc1=O [OIT, 2-n-octyl-4-isothiazolin-3-one]	50%	2000 ppm	60%	2000 ppm
